# Measurements from ChEMBL document CHEMBL3351354, “From the covalent linkage of drugs to novel inhibitors of ribonucleotide reductase: synthesis and biological evaluation of valproic esters of 3'-C-methyladenosine” (Bioorg Med Chem Lett, 2014).
# Calls of active or inactive are those of the source. The calls are words filed in the database; no cut-off is given here.
# What was measured:
# HL-60 [1] = assay: Induction of cell cycle arrest in human HL60 cells assessed as accumulation at G2M phase at 50 uM after 24 hrs by propidium iodide staining based flow cytometry (reference value: 12%); type: functional
# K562 = assay: Growth inhibition of human K562 cells after 48 hrs by MTT assay; type: functional, cell-based; conditions: Homo sapiens, K562, 48 h; read-out: IC50
# [2] = Growth inhibition of human Caco2 cells after 48 hrs by MTT assay; type: functional, cell-based, Caco-2; conditions: Homo sapiens, Caco-2, 48 h; read-out: IC50
# [3] = target: T1, Ribonucleotide reductase (Homo sapiens) (UniProt P23921+Q7LG56); assay: Inhibition of ribonucleotide reductase in human HL60 cells assessed as intracellular dNTP pools level at 50 uM after 1 hr by HPLC method; type: cell-based; conditions: HL-60
# HT-29 = assay: Growth inhibition of human HT-29 cells after 48 hrs by MTT assay; type: functional, cell-based; conditions: Homo sapiens, HT-29, 48 h; read-out: IC50
# [4] = Half life in RPMI-1640 medium containing 10% fetal calf serum assessed as compound disappearance by HPLC-DAD-ESI-MS method; type: ADME, Bos taurus; conditions: cattle
# [5] = target: T1, Ribonucleotide reductase (Homo sapiens); assay: Inhibition of human recombinant ribonucleotide reductase at 0.1 mM; type: protein-complex assay
# HL-60 [6] = assay: Induction of ROS generation in human HL60 cells at 2 and 5 mM after 24 hrs by DCFH-DA staining based flow cytometry; type: functional, cell-based
# MCF7 = assay: Growth inhibition of human MCF7 cells after 48 hrs by MTT assay; type: functional, cell-based; conditions: Homo sapiens, MCF7, 48 h; read-out: IC50
# [7] = Half life in pH 7.4 isotonic sodium phosphate buffer at 37 degC by HPLC-DAD-ESI-MS method; type: physicochemical
# HL-60 [8] = assay: Induction of apoptosis in human HL60 cells after 24 to 48 hrs by acridine orange and ethidium bromide staining based fluorescence microscopy; type: functional, cell-based; conditions: Homo sapiens, HL-60; read-out: AC50
# [9] = target: T2, Histone deacetylase (Homo sapiens) (UniProt Q13547+O15379+Q9UBN7+Q92769+Q9UQL6+Q8WUI4+Q9BY41+Q96DB2+P56524+Q9UKV0+Q969S8); assay: Inhibition of HDAC in human HL60 cells assessed as increase in p21 expression at 50 uM after 24 hrs by flow cytometry; type: cell-based; conditions: HL-60
# HuT78 = assay: Growth inhibition of human HUT78 cells after 48 hrs by MTT assay; type: functional, cell-based; conditions: Homo sapiens, HuT78, 48 h; read-out: IC50
# [10] = Growth inhibition of human HL60 cells after 48 hrs by MTT assay; type: functional, cell-based, HL-60; conditions: Homo sapiens, HL-60, 48 h; read-out: IC50
# [11] = target: T2, Histone deacetylase (Homo sapiens); assay: Inhibition of HDAC in human HL60 cells assessed as increase in histone H3 acetylation at 10 and 100 uM after 24 hrs by Western blotting method; type: cell-based; conditions: HL-60
# HL-60 [12] = assay: Induction of cell cycle arrest in human HL60 cells assessed as accumulation at S phase at 50 uM after 24 hrs by propidium iodide staining based flow cytometry (reference value: 54%); type: functional
# HL-60 [13] = assay: Induction of cell cycle arrest in human HL60 cells assessed as accumulation at G1 phase at 50 uM after 24 hrs by propidium iodide staining based flow cytometry (reference value: 32%); type: functional
# HeLa = assay: Growth inhibition of human HeLa cells after 48 hrs by MTT assay; type: functional, cell-based; conditions: Homo sapiens, HeLa, 48 h; read-out: IC50
# HL-60 [14] = assay: Induction of cell cycle arrest in human HL60 cells assessed as accumulation at S phase at 5 mM after 24 hrs by propidium iodide staining based flow cytometry (reference value: 54%); type: functional
# [15] = target: T2, Histone deacetylase (Homo sapiens); assay: Inhibition of HDAC in human HL60 cells assessed as increase in histone H3 acetylation at 1 mM after 24 hrs by Western blotting method; type: cell-based; conditions: HL-60
# HL-60 [16] = assay: Induction of cell cycle arrest in human HL60 cells assessed as accumulation at G2M phase at 5 mM after 24 hrs by propidium iodide staining based flow cytometry (reference value: 12%); type: functional
# HL-60 [17] = assay: Induction of cell cycle arrest in human HL60 cells assessed as accumulation at S phase at 2 mM after 24 hrs by propidium iodide staining based flow cytometry (reference value: 54%); type: functional
# [18] = Cytotoxicity against human HL60 cells after 24 to 48 hrs by trypan blue dye exclusion method; type: functional, cell-based; conditions: HL-60
# HL-60 [19] = assay: Induction of cell cycle arrest in human HL60 cells assessed as accumulation at G1 phase at 5 mM after 24 hrs by propidium iodide staining based flow cytometry (reference value: 32%); type: functional
# HL-60 [20] = assay: Induction of cell cycle arrest in human HL60 cells assessed as accumulation at G1 phase at 2 mM after 24 hrs by propidium iodide staining based flow cytometry (reference value: 32%); type: functional
# HL-60 [21] = assay: Induction of cell cycle arrest in human HL60 cells assessed as accumulation at G2M phase at 2 mM after 24 hrs by propidium iodide staining based flow cytometry (reference value: 12%); type: functional
# HL-60 [22] = assay: Induction of ROS generation in human HL60 cells at 50 and 100 uM after 24 hrs by DCFH-DA staining based flow cytometry; type: functional, cell-based
# HL-60 [23] = assay: Induction of cell cycle arrest in human HL60 cells assessed as accumulation at G2M phase at 20 uM in presence of 2 mM VPA after 24 hrs by propidium iodide staining based flow cytometry (reference value: 12%); type: functional
# HL-60 [24] = assay: Induction of cell cycle arrest in human HL60 cells assessed as accumulation at G1 phase at 20 uM after 24 hrs by propidium iodide staining based flow cytometry (reference value: 32%); type: functional
# HL-60 [25] = assay: Induction of cell cycle arrest in human HL60 cells assessed as accumulation at S phase at 20 uM in presence of 2 mM VPA after 24 hrs by propidium iodide staining based flow cytometry (reference value: 54%); type: functional
# HL-60 [26] = assay: Cytotoxicity against human HL60 cells at 20 to 100 uM after 24 to 48 hrs in presence of 1 mM VPA by trypan blue dye exclusion method; type: functional, cell-based
# HL-60 [27] = assay: Induction of apoptosis in human HL60 cells at 20 uM in presence of 2 mM VPA after 24 to 48 hrs by acridine orange and ethidium bromide staining based fluorescence microscopy; type: functional
# HL-60 [28] = assay: Induction of apoptosis in human HL60 cells at 20 uM in presence of 1 mM VPA after 24 to 48 hrs by acridine orange and ethidium bromide staining based fluorescence microscopy; type: functional, cell-based
# HL-60 [29] = assay: Cytotoxicity against human HL60 cells at 20 to 100 uM after 24 to 48 hrs in presence of 2 mM VPA by trypan blue dye exclusion method; type: functional, cell-based
# HL-60 [30] = assay: Induction of cell cycle arrest in human HL60 cells assessed as accumulation at G2M phase at 20 uM after 24 hrs by propidium iodide staining based flow cytometry (reference value: 12%); type: functional
# HL-60 [31] = assay: Induction of cell cycle arrest in human HL60 cells assessed as accumulation at G1 phase at 20 uM in presence of 2 mM VPA after 24 hrs by propidium iodide staining based flow cytometry (reference value: 32%); type: functional
# HL-60 [32] = assay: Induction of cell cycle arrest in human HL60 cells assessed as accumulation at S phase at 20 uM after 24 hrs by propidium iodide staining based flow cytometry (reference value: 54%); type: functional
Compound,IC50 (K562) [µM],IC50 [2] [µM],IC50 (HT-29) [µM],half-life [4] [h],IC50 (MCF7) [µM],AC50 (HL-60 [8]) [µM],IC50 (HuT78) [µM],IC50 [10] [µM],IC50 (HeLa) [µM],IC50 [18] [µM],other results
CCCC(CCC)C(=O)OC[C@H]1O[C@@H](n2cnc3c(N)ncnc32)[C@H](OC(=O)C(CCC)CCC)[C@]1(C)O,51.9,55.1,54.6,> 72,57.8,140,30,16.3,54.4,–,Activity (HL-60 [1]): 0%; inhibition [3]: inactive; inhibition [5]: inactive; Activity (HL-60 [6]): inactive; half-life [7]: > 72 h; inhibition [9]: inactive; inhibition [11]: inactive; Activity (HL-60 [12]): 29%; Activity (HL-60 [13]): 71%
CCCC(CCC)C(=O)O [VALPROIC ACID],> 1000,> 1000,> 1000,–,230,2500,1800,1700,1000,1700,Activity (HL-60 [14]): 5%; inhibition [15]: Active; Activity (HL-60 [16]): 55%; Activity (HL-60 [17]): 8%; Activity (HL-60 [19]): 39%; Activity (HL-60 [20]): 78%; Activity (HL-60 [21]): 14%; Activity (HL-60 [22]): inactive
C[C@@]1(O)[C@@H](CO)O[C@@H](n2cnc3c(N)ncnc32)[C@@H]1O,9.4,24.3,26.1,43.5,22.4,75,17.3,15.6,23.3,15,Activity (HL-60 [23]): 11%; Activity (HL-60 [24]): 31%; Activity (HL-60 [25]): 61%; Activity (HL-60 [26]): inactive; Activity (HL-60 [27]): 90%; Activity (HL-60 [28]): Active; Activity (HL-60 [29]): Active; Activity (HL-60 [30]): 9%; Activity (HL-60 [31]): 28%; Activity (HL-60 [32]): 60%
